These results are taken from patent US20250145628A1, “PYRAZOLOPYRIMIDINES, COMPOSITIONS COMPRISING THEM AND USES THEREOF” (Novo Nordisk A/S, priority 2022, published 2025).

By IC50 is commonly meant the concentration that gives 50% inhibition.

For test [1], the target named is T1, human CB1 receptor (Homo sapiens, UniProt P21554).
T1 construct: expressed in transfected cells; host or cells: HEK293
Put plainly: bioSensAll β-arrestin plasma membrane translocation BRET biosensor (+GRK2) assay (antagonism of CP-55,940). The class given is cell-based. As to conditions: HEK293 cells transfected with hCB1 and β-arrestin PM translocation biosensor (+GRK2), EC75 of CP-55,940 (100 nM), overnight incubation, read-out: CB1 wt βarr2 IC50. The procedure:
(§1) Using polyethylenimine (PEI) transfection agent, HEK293 cells were transfected in suspension with the human CB1 or CB1b receptor and one of the following bioSensAll® assays: GAPL-Gi2, or β-arrestin plasma membrane (PM) translocation biosensor (+GRK2). Cells were directly seeded in 96-well plates immediately following transfection.
(§2) Cells were incubated with coelenterazine (luciferase substrate) and different test compounds prior to the measurement of BRET signals.
ii) The multimolecular β-arrestin membrane recruitment biosensors allow for real-time spatio-temporal monitoring of β-arrestin 1 and β-arrestin 2 following GPCR activation. Specifically, these β-arrestin sensors were designed to detect the recruitment of proteins to the plasma membrane (β-arrestin PM) with localization to compartment resulting in an increased BRET signal.
(§3) HEK293 cells were maintained in Dulbecco's Modified Eagle Medium (DMEM) (Wisent; cat #319-030-CL: without sodium pyruvate, with 4.5 g/L glucose, without L-glutamine) supplemented with 1% penicillin-streptomycin (Wisent; cat #450-201-EL) and 2 or 10% fetal bovine serum (Wisent cat #090150).
(§4) HEK293 cells were co-transfected with hCB1 or hCB1b and one of the above-listed bioSensAll® assays. For each transfection condition: • the total amount of transfected DNA was kept constant at 1 μg per mL of cell culture to be transfected; whenever necessary, salmon sperm DNA (Invitrogen, cat #15632011) was used as ‘carrier’ DNA to supplement plasmid DNA (i.e., biosensor and receptor); • the PEI (polyethylenimine 25 kDa linear, PolyScience, cat #23966) to DNA ratio (ug:ug) was fixed at 3:1.
(§5) Transfections were carried out as follows: • DNA and PEI were first diluted separately in 150 mM NaCl. The volume of the diluent in each tube corresponds to 5% of the cell culture volume to be transfected. • Once DNA and PEI were diluted, the PEI-containing solution was added to the DNA solution and the DNA/PEI mixture immediately vortexed for 5 seconds. • The DNA/PEI mixture was incubated for at least 20 minutes at room temperature to allow for the formation of DNA/PEI complexes. • During the incubation, HEK293 cells were detached, counted and re-suspended in culture medium (composition specified above). • At the end of the incubation period, the DNA/PEI mixture was added to the cells. • Cells were finally distributed in 96-well plates (White Opaque 96-well/Microplates, Greiner, cat #655083 or CulturPlate-96, White Opaque 96-well Microplate, PerkinElmer, cat #6005688) at a density of 30 000 cells per well.
(§6) At ˜48 hours post-transfection: • Using 450-Select TS Biotek plate washer, culture medium was aspirated and replaced with 100 μl of Hank's Balanced Salt Solution buffer (HBSS) (Wisent, cat #319-067CL: without red phenol; with sodium bicarbonate, with calcium and magnesium, with HEPES) per well. This process was performed a total of two times (i.e., 2 washes). • After the washing step, the HP D300 digital dispenser (Tecan) was used to inject increasing doses (12) of test compounds (ranging from 0-600 nM) to wells. Three to five minutes later, an EC75 of CP-55,940 (0.1 nM for GAPL-Gi2 assay; 100 nM for β-arrestin PM translocation biosensor (+GRK2)) was added to columns 2-12 of each 96-well plate.
(§7) BRET signals were determined by calculating the ratio of light emitted by GFP-acceptor (515 nm) over light emitted by luciferase-donor (400 nm). All BRET ratios were standardized using the equation below with pre-established BRET values for positive and negative controls. The standardized BRET ratio is referred to as universal BRET (uBRET).
(§8) Resulting dose-response curves were fitted using the four-parameter logistic non-linear regression model in GraphPad Prism 9.
Background: BRET reads energy transfer from a luciferase to a nearby fluorophore.

The target in test [2] is T1, human CB1 receptor. Kind of test: bioSensAll GAPL-Gi2 BRET biosensor assay (antagonism of CP-55,940). The test is classed as cell-based. As to conditions: HEK293 cells transfected with hCB1 and GAPL-Gi2 biosensor, EC75 of CP-55,940 (0.1 nM), overnight incubation, read-out: CB1 wt Gi2 IC50. The procedure: as §1, §2
i) GAPL sensors are used to monitor the activation of heterotrimeric G proteins at the plasma membrane upon receptor stimulation. Specifically, these multimolecular BRET sensors detect the plasma membrane recruitment of proteins that interact with active Ga subunits in a G protein family-selective manner. G protein activation following receptor stimulation generally leads to an increase in the BRET signal.
as §3, §4, §5, §6, §7, §8

T1 sequence (P21554 whole entry): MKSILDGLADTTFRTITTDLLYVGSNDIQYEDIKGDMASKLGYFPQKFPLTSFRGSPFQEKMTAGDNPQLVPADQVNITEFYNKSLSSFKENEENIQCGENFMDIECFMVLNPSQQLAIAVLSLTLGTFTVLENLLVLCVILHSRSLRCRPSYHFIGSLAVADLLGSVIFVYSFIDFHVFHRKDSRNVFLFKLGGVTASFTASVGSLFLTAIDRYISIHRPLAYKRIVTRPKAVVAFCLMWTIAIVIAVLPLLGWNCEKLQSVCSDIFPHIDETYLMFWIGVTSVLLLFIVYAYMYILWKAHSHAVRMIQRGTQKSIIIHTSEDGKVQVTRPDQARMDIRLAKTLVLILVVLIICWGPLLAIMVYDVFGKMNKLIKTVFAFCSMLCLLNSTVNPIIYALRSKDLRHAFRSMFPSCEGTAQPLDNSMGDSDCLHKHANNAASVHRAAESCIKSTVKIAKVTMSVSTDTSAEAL

`CC(C)(O)COc1cc(N2CCC[C@@H](C(N)=O)C2)n2nc(-c3ccccc3Cl)c(-c3ccc(Cl)cc3)c2n1` [Compound 17(R), 1-[2-(2-chlorophenyl)-3-(4-chlorophenyl)-5-(2-hydroxy-2-methyl-propoxy)pyrazolo[1,5-a]pyrimidin-7-yl]piperidine-3-carboxamide]: the IC50 on human CB1 receptor [1] was found to be 49.8 nM; at human CB1 receptor [2] it was 17.1 nM.

Regarding `CC(C)OC1(C(N)=O)CCN(c2cc(OCC(C)(C)O)nc3c(-c4ccc(Cl)cc4)c(-c4ccccc4Cl)nn23)CC1` [Compound 57, 1-[2-(2-chlorophenyl)-3-(4-chlorophenyl)-5-(2-hydroxy-2-methyl-propoxy)pyrazolo[1,5-a]pyrimidin-7-yl]-4-isopropoxy-piperidine-4-carboxamide], the IC50 at human CB1 receptor [1] is 2.86 nM; at human CB1 receptor [2] it was 1.04 nM.

In the case of `CC(C)(O)COc1cc(N2CCC(C)(C(N)=O)CC2)n2nc(-c3ccc(C#N)nc3)c(-c3ccc(Cl)cc3)c2n1` [Compound 54, 1-[3-(4-chlorophenyl)-2-(6-cyano-3-pyridyl)-5-(2-hydroxy-2-methyl-propoxy)pyrazolo[1,5-a]pyrimidin-7-yl]-4-methyl-piperidine-4-carboxamide], the results for the IC50 at human CB1 receptor [1] and at human CB1 receptor [2] were 2.43 nM and 1.02 nM, respectively.

Regarding `CCNC(=O)CNc1cc(N2CCC(C)(C(N)=O)CC2)n2nc(-c3ccccc3Cl)c(-c3ccc(Cl)cc3)c2n1` [Compound 47, 1-[2-(2-chlorophenyl)-3-(4-chlorophenyl)-5-[[2-(ethylamino)-2-oxo-ethyl]amino]pyrazolo[1,5-a]pyrimidin-7-yl]-4-methyl-piperidine-4-carboxamide], the IC50 amounted to 131 nM on human CB1 receptor [1] and 33.7 nM at human CB1 receptor [2].

Consider `CN(CC1COC(C)(C)OC1)c1cc(N2CCC(C)(C(N)=O)CC2)n2nc(-c3ccccc3Cl)c(-c3ccc(Cl)cc3)c2n1` [Compound 62, 1-[2-(2-chlorophenyl)-3-(4-chlorophenyl)-5-[(2,2-dimethyl-1,3-dioxan-5-yl)methyl-methyl-amino]pyrazolo[1,5-a]pyrimidin-7-yl]-4-methyl-piperidine-4-carboxamide], for which the IC50 is over 30000 nM on human CB1 receptor [1] and 7610 nM on human CB1 receptor [2].

On to `OC[C@@H]1CCCN1c1cc(-c2ccc(C(F)(F)F)cc2)n2nc(-c3ccccc3Cl)c(-c3ccc(Cl)cc3)c2n1` [Compound 4, [(2S)-1-[2-(2-chlorophenyl)-3-(4-chlorophenyl)-7-[4-(trifluoromethyl)phenyl]pyrazolo[1,5-a]pyrimidin-5-yl]pyrrolidin-2-yl]methanol], for which the values for the IC50 at human CB1 receptor [1] and at human CB1 receptor [2] were 10.6 nM and 4.04 nM, respectively.

Consider `CC1(C(N)=O)CCN(c2cc(N3CC[C@@H]3CC(=O)O)nc3c(-c4ccc(Cl)cc4)c(-c4ccccc4Cl)nn23)CC1` [Compound 19, 2-[(2R)-1-[7-(4-carbamoyl-4-methyl-1-piperidyl)-2-(2-chlorophenyl)-3-(4-chlorophenyl)pyrazolo[1,5-a]pyrimidin-5-yl]azetidin-2-yl]acetic acid], for which the IC50 was over 10000 nM on human CB1 receptor [1] and 1480 nM at human CB1 receptor [2].

As to `CC1(C(N)=O)CCN(c2cc(N3CCC[C@H]3C(=O)O)nc3c(-c4ccc(Cl)cc4)c(-c4ccccc4Cl)nn23)CC1` [Compound 18, (2S)-1-[7-(4-carbamoyl-4-methyl-1-piperidyl)-2-(2-chlorophenyl)-3-(4-chlorophenyl)pyrazolo[1,5-a]pyrimidin-5-yl]pyrrolidine-2-carboxylic acid], the figures for the IC50 on human CB1 receptor [1] and on human CB1 receptor [2] were 109 nM and 56.2 nM, respectively.

As for `CN(C[C@H](O)CO)c1cc(N2CCC(C)(C(N)=O)CC2)n2nc(-c3ccccc3Cl)c(-c3ccc(Cl)cc3)c2n1` [Compound 67, 1-[2-(2-chlorophenyl)-3-(4-chlorophenyl)-5-[[(2S)-2,3-dihydroxypropyl]-methyl-amino]pyrazolo[1,5-a]pyrimidin-7-yl]-4-methyl-piperidine-4-carboxamide], the results for the IC50 at human CB1 receptor [1] and at human CB1 receptor [2] were 14.5 nM and 1.96 nM, respectively.

Turning to `CCNC(=O)CN(C)c1cc(N2CC(OCC(N)=O)C2)n2nc(-c3ccccc3Cl)c(-c3ccc(Cl)cc3)c2n1` [Compound 69, 2-[[7-[3-(2-amino-2-oxo-ethoxy)azetidin-1-yl]-2-(2-chlorophenyl)-3-(4-chlorophenyl)pyrazolo[1,5-a]pyrimidin-5-yl]-methyl-amino]-N-ethyl-acetamide], the values for the IC50 on human CB1 receptor [1] and on human CB1 receptor [2] were over 30000 nM and 3910 nM, respectively.

On to `COC1(C)CN(c2cc(OCC(C)(C)O)nc3c(-c4ccc(Cl)cc4)c(-c4ccc(C#N)nc4)nn23)C1` [Compound 52, 5-[3-(4-chlorophenyl)-5-(2-hydroxy-2-methyl-propoxy)-7-(3-methoxy-3-methyl-azetidin-1-yl)pyrazolo[1,5-a]pyrimidin-2-yl]pyridine-2-carbonitrile], for which the IC50 at human CB1 receptor [1] is 2.56 nM; on human CB1 receptor [2], 1.47 nM.

For the compound `C[C@@H](O)COc1cc(-c2ccc(C(F)(F)F)nc2)n2nc(-c3ccccc3Cl)c(-c3ccc(Cl)cc3)c2n1` [Compound 70(R)], the IC50 at human CB1 receptor [1] stood at 2.78 nM; on human CB1 receptor [2] it was 1.11 nM.

`C[C@H](O)COc1cc(-c2ccc(C(F)(F)F)nc2)n2nc(-c3ccccc3Cl)c(-c3ccc(Cl)cc3)c2n1` [Compound 70(S)]: the IC50 came out at 8.27 nM on human CB1 receptor [1] and 1.71 nM on human CB1 receptor [2].

In the case of `CN(C)C(=O)CN(C)c1cc(N2CC(CC(N)=O)C2)n2nc(-c3ccccc3Cl)c(-c3ccc(Cl)cc3)c2n1` [Compound 32, 2-[1-[2-(2-chlorophenyl)-3-(4-chlorophenyl)-5-[[2-(dimethylamino)-2-oxo-ethyl]-methyl-amino]pyrazolo[1,5-a]pyrimidin-7-yl]azetidin-3-yl]acetamide], the IC50 was over 10000 nM on human CB1 receptor [1] and 584 nM at human CB1 receptor [2].

As for `CN(CCO)c1cc(N2CCC(C)(C(N)=O)CC2)n2nc(-c3ccccc3Cl)c(-c3ccc(Cl)cc3)c2n1` [Compound 10, 1-[2-(2-chlorophenyl)-3-(4-chlorophenyl)-5-[2-hydroxyethyl(methyl)amino]pyrazolo[1,5-a]pyrimidin-7-yl]-4-methyl-piperidine-4-carboxamide], the IC50 at human CB1 receptor [1] amounted to 1.74 nM; on human CB1 receptor [2], 0.255 nM.

As for `CN(CCC(N)=O)c1cc(N2CC[C@H](CC(N)=O)C2)n2nc(-c3ccccc3Cl)c(-c3ccc(Cl)cc3)c2n1` [Compound 28, 3-[[7-[(3R)-3-(2-amino-2-oxo-ethyl)pyrrolidin-1-yl]-2-(2-chlorophenyl)-3-(4-chlorophenyl)pyrazolo[1,5-a]pyrimidin-5-yl]-methyl-amino]propanamide], the figures for the IC50 at human CB1 receptor [1] and on human CB1 receptor [2] were 93.9 nM and 18.9 nM, respectively.

On to `C[C@@H](C(N)=O)N(C)c1cc(N2CCC(C)(C(N)=O)CC2)n2nc(-c3ccccc3Cl)c(-c3ccc(Cl)cc3)c2n1` [Compound 68, 1-[5-[[(1S)-2-amino-1-methyl-2-oxo-ethyl]-methyl-amino]-2-(2-chlorophenyl)-3-(4-chlorophenyl)pyrazolo[1,5-a]pyrimidin-7-yl]-4-methyl-piperidine-4-carboxamide], for which the IC50 was 14.5 nM at human CB1 receptor [1] and 3.01 nM at human CB1 receptor [2].
